# Data published in a melting point compilation (Tetko et al.; mined from patent text by program, amines drawn as free bases though some values may be those of a salt).
row,SMILES,melting point [°C]
1,CCCCn1c(=O)c(C(=O)Nc2ccncc2)c(O)c2sccc21,212 to 216
2,COc1cc([N+](=O)[O-])ccc1N1C(=O)C(=O)N(c2cccc(Cl)c2)C1=O,176 to 178
3,CCCCCCCCCCCOc1cccc(CCCC(N)(CO)CO)c1,71 to 72
4,CSc1nc(=O)n(Cc2ccccc2)c2ncn(C)c12,268 to 270
5,CC(=O)Nc1ccc(C=C2C(=S)c3cc(C)ccc3OC2c2ccccc2)cc1 (centres undefined),197 to 198
6,COc1cccc2c(=O)n3c(cc12)SCCC3,117 to 118
7,CC(=O)Oc1coc(-c2cccc([N+](=O)[O-])c2)cc1=O,170 to 171
8,CCN(CC)CCOc1ccc(Nc2ncc3c(=O)n(Cc4ccc(OC)cc4)c(=O)n(C(C)C)c3n2)cc1,139 to 141
9,CN(C)C(=C[N+](=O)[O-])NCc1ccc(Cl)cc1,133 to 135
10,COc1ccc2c(=O)c3oc4c5ccccc5ccc4c3oc2c1,282 to 284
11,COc1ccc(S(=O)(=O)C2(C(=O)NO)CCN(CCOc3ccccc3)CC2)cc1,168 to 172
12,CCCCCCCCCCNC(=O)c1cc(NCCC(=O)O)c(CCC(=O)O)c(C(=O)NCCCCCCCCCC)c1,139 to 141
13,Cc1c2n(c3ccccc13)C(=O)N(Cc1ncn(C(c3ccccc3)(c3ccccc3)c3ccccc3)c1C)CC2,210 to 220
14,CC(=O)Nc1c([N+](=O)[O-])cc(F)c(F)c1F,96 to 97
15,NC(=O)c1cccc(-c2cccc3cc(Cc4cc(F)cc(C(F)(F)F)c4)sc23)c1,147 to 148
16,O=C(Nc1ccccc1CS(=O)c1nccn1-c1ccccn1)c1ccccc1 (centres undefined),109 to 111
17,O=c1ccc2c(-n3cnc(Br)c3)nccc2[nH]1,278 to 280
18,COc1ccc(C(=O)CN2CCN(C3CCCCO3)C2=O)cc1OC (centres undefined),120
19,CCc1cc2c(Cl)cc(F)c(-n3c(=O)cc(C(F)(F)F)[nH]c3=O)c2o1,154 to 155

row,SMILES,melting point [°C]
1,COc1ccccc1-c1ccc2c(c1)CC[C@H]1N(C)C(=O)CC[C@]21C,152 to 156
2,Nc1ncc2c(n1)-c1ccc(Cl)cc1C(c1ccccc1F)=NC2,245 to 248
3,COC1CCN(Cc2ccc(C#CC(=O)Nc3ccc(-c4ccc(Cl)cc4)cc3)cc2)CC1,145 to 146
4,CNc1nc(-c2cccc(C(=O)Nc3ccccc3)c2)c2cc(OC)c(OC)cc2n1,242 to 244
5,O=C(c1ccc2c(c1)OCCO2)c1ccc2[nH]c(=O)nc(-c3cccc(Cl)c3)c2c1,255
6,CN1CCC(N(C)c2ncc3ncnc(Nc4ccc(N)c([N+](=O)[O-])c4)c3n2)CC1,242 to 246
7,CN(C)CCC1=Cc2ccccc2N(C)c2ccccc21,78
8,N#CC(O)COc1ccccc1 (centres undefined),59
9,CCCn1c(=O)nc2sc3ccccc3nc-2c1=O,258
10,O=C(O)c1cc(C(F)(F)F)cc(Cl)c1-n1cnc(C(F)(F)C(F)(F)F)cc1=O,189 to 190
11,Cc1c(NC(=O)c2ccccc2[N+](=O)[O-])cccc1C(F)(F)F,188 to 189
12,COC(=O)c1ccccc1Nc1c(Cl)cccc1Cl,100 to 103
13,N[C@@H](Cc1ccccc1)C(=O)N1CCN(C(c2ccc(F)cc2)c2ccc(F)cc2)CC1,44 to 51
14,Clc1ccccc1Cc1nc2cccc(CCc3nccs3)c2o1,64 to 66
15,O=C(c1cccs1)c1cnn2c(-c3cccc(Br)c3)ccnc12,193 to 195
16,OC[C@H]1CC[C@H](c2ccc(Cl)cc2)CC1,60 to 63
17,CC(=O)Cn1nc(-c2sc(N)nc2-c2ccccc2)ccc1=O,216 to 219
18,N#CCOc1nsc2ccc([N+](=O)[O-])cc12,123 to 124
19,N=C(NC=Cc1ccc(N)cc1)c1ccccc1,166 to 168

# The next lines start with the values.
row,melting point [°C],SMILES
1,134,CCOC(=O)C=Cc1ccc(N2CCCC2=O)cc1
2,90,CCOc1cc2c(c(F)c1F)OC(C1CCC(CC)CC1)CC2 (centres undefined)
3,137 to 140,CSC(=NC(C)=O)Nc1c(Cl)cccc1Cl
4,143 to 144,CS(=O)(=O)Cc1cc(C(=O)CBr)ccc1OCc1ccccc1
5,76 to 80,N[C@@H](CO)C(=O)NCc1ccccc1
6,158 to 159,O=C(O)CC(O)(Cn1cncn1)c1ccc(Cl)cc1Cl (centres undefined)
7,82 to 83,CCOC(=O)c1cnc(SC)nc1NCc1ccc(OC)c(Cl)c1
8,88 to 89,CCCCc1cc2cc(N)ccn2c1C(=O)c1ccc(OCCCN(CCCC)CCCC)cc1
9,97 to 99,CC(C#N)(CCC(=O)O)SC(=S)c1ccccc1 (centres undefined)
10,200,CC1(C)Oc2ccc(C(=O)CO)cc2[C@H](NC(=O)c2ccc(F)c(Cl)c2)[C@@H]1O
11,123 to 125,CC(CCC(=O)O)C1CCC2C3CCC4CC(OC=O)CCC4(C)C3CC(OC=O)C12C (centres undefined)
12,54 to 55,COc1ccc(CCNC(=O)[C@@H](O)CO)cc1OC1CCCC1
13,146 to 148,CCOC(=O)c1sc(-n2cnn(CC3CC3(F)F)c2=O)nc1C (centres undefined)
14,163,CCCNNC(=O)c1cnc(N(CC)Cc2cc(Br)ccc2OCc2ccccc2)s1
15,118 to 120,CC(C)(C)OC(=O)CN1C(=O)C(NC(=O)OCc2ccccc2)C1CCC(=O)O (centres undefined)
16,147,CCOC(=O)C1=C(N)NC(N)=C(C(=O)OCC)C1c1ccccc1OC
17,99,Cc1cc(O)c(CC(=O)OCCC(C)C)cc1O
18,50.5 to 52,COC(=O)c1ccccc1COc1ccc(CCCO)cc1

row,melting point [°C],SMILES
1,41 to 42,C[C@@H](O)C(=O)OC(C)(C)C
2,167 to 170,CCOCCc1nc(N)cc(=O)[nH]1
3,135,CC(C)(C)C(=O)C(CS(=O)(=O)c1ccccc1)n1cncn1 (centres undefined)
4,52 to 54,CCOC(=O)CN1C(=O)[C@H](NC(=O)[C@H](COCc2ccccc2)NC(=O)OC(C)(C)C)CSc2ccccc21
5,180 to 181,Nc1cc(CC(=O)O)cc2c1NC(C(F)(F)F)CC2 (centres undefined)
6,270,CCOC(=O)c1cn(CC)c2nc3cc(F)c(F)cc3cc2c1=O
7,223 to 224,CC(=O)OC1(C(=O)CO)CCC2C3CCC4=CC(=O)C=CC4(C)C3C(O)CC21C (centres undefined)
8,199,CCOc1ccc2[nH]cc(C(=O)NCc3ccccc3)c(=O)c2n1
9,> 40,CCOC(=O)c1c(N2CCC(N(C)C)C2)c2cc(C)ccc2n(Cc2ccccc2)c1=O (centres undefined)
10,106 to 108,COC(=O)c1cc(-c2ccc(C)cc2)no1
11,50,CCOC(=O)c1ccc(C2=CCCCC2C(C)(C)C)cc1 (centres undefined)
12,257 to 259,Cc1c(O)noc1C(=O)O
13,96 to 97,CCOC(=O)c1nn(-c2ccc(C=O)cc2)nc1-c1ccccc1
14,127 to 129,CCC(C(=O)c1ccc(O)cc1)c1ccccc1 (centres undefined)
15,191 to 192,CC(C)(C)C(NC(=O)Cc1ccc2c(c1)OCCO2)NC(=NC#N)Nc1cccc2ncccc12 (centres undefined)
16,54 to 55,CCOC(=O)C(=NO)C(C)C
17,87,CCOC(=O)c1cnn(-c2ccc(OCC(C)C)c(C#N)c2)c1Cl
18,105 to 106,CC(O)(C(O)CI)C(O)CI (centres undefined)
